In US9334259B2, “Aryloxyacetamide compound and pesticide” (Nippon Soda Co., Ltd., priority 2012, dated 2016):

Tested on: acaricide-resistant adult female Aculops pelekassi
Experiment: Efficacy test against Aculops pelekassi (mandarin orange leaf)
Type: in vivo
Conditions: 125 ppm emulsion sprayed
Protocol: Twenty acaricide-resistant adult female Aculops pelekassi acarus were inoculated onto a mandarin orange leaf placed in a Petri dish. Next, an emulsion was prepared having the formula indicated in the aforementioned Preparation example 2. This emulsion was diluted with water to a compound concentration of 125 ppm after which the diluted liquids were sprayed onto the mandarin orange leaf with a rotary spraying tower. The mandarin orange leaf was then placed in a temperature-controlled room at a temperature of 25° C. and a humidity of 65%. The life and death of the adult insects were investigated 3 days after the spraying. The development from eggs laid to adult was investigated 10 days after the spraying.

Q: CCC(Oc1cc(Br)c(Cl)c(Br)c1)C(=O)NC(C)(C)c1ncccn1 (centres unmarked) [Compound No. 1-14] was tested. Which “insect mortality rate after 3 days” value (3 days after spraying) did it give?
A: ≥ 90%

Q: What about the “insect mortality rate after 10 days” value (10 days after spraying) of the same compound?
A: ≥ 90%
